In publication PMC12426922, “Fingerprinting the Intestinal Transport of Low-Molecular-Mass Advanced Glycation End-Products (AGEs) Using a Caco‑2 Transwell Model” (Journal of Agricultural and Food Chemistry, 2025):
Where “and” joins values, the source holds several entries; their conditions need not be identical. Equal values may be shown once. Read-outs that look alike come from different tables or passages of the source. Marks after values point to notes of the source that are not given here.

Legend:
[1] = system: differentiated Caco-2 cells; assay: WST-1 cytotoxicity assay, viability of differentiated Caco-2 cells after 2 h exposure; assay type: cell-based, Human
Description: (§1) Human colon carcinoma cells (Caco-2 cells) were obtained from the American Type Culture Collection (ATCC, Rockville, MD, USA). Caco-2 cells were cultured in complete culture medium, composed of DMEM GlutaMAX with 10% FBS (v/v), 1% P/S (v/v), and 1% NEAA (v/v) at 37 °C in a 5% (v/v) CO2 incubator. In this study, Caco-2 cells within passages 10–15 were utilized.
The WST-1 assay was used to quantify the viability of differentiated Caco-2 cells upon exposure to the individual AGEs and their equimolar mixture. To this end, Caco-2 cells were seeded in 96-well plates at 3 × 10^4 cells/well (100 μL) and incubated at 37 °C under 5% (v/v) CO2 for 20 days. The complete culture medium was refreshed on each alternate day. After full differentiation, the culture medium was removed, and the cells were washed with HBSS (containing 1% (v/v) HEPES) twice on the testing day. The same volume (100 μL) of HBSS containing a series of concentrations of the different individual test compounds or of a mixture containing all 10 AGEs was added from a 20-times-concentrated stock solution in HBSS. The test concentrations were designed based on the estimated daily intake of total AGEs (0.55–0.66 mg/(kg·day)) and high-exposure scenarios (1.4–1.8 mg/(kg day)). […] After exposure for 2 h, the absorbance at 440 and 620 nm was measured in a plate spectrophotometer (Molecular Devices, San Jose, CA, USA, Spectra Max M2). After measurement, the cell viability was calculated as cell viability (%)=(Atested 440 nm−Atested 620 nm)/(Acontrol 440 nm−Acontrol 620 nm)×100

[2] = Transport of AGE mixture across Caco-2 cell layer (transwell, apical to basolateral); assay type: in vitro ADME, Human; conditions: human; for recovery at 2 h, 100 μmol/L: read-out: percentage of the amount added at the apical side at t = 0: recovery; for Papp at 120 min, 100 μmol/L: data from 120 min
Description: as §1
(§2) Caco-2 cells were cultured until reaching 50%–60% confluence (undifferentiated Caco-2 cells), followed by trypsinization. Then, cells were seeded at 3 × 10^4 cells per insert in 100 μL of complete culture medium into the transwell inserts of a 24-well transwell plate, and 600 μL of complete culture medium was added to the basolateral compartments. In both the apical and basolateral compartments, the medium was renewed every other day. After 2 weeks, the transepithelial electrical resistance (TEER) value was measured using a Millicell ERS-2 Electrical Resistance System (Burlington, MA, USA) every other day. Only wells with a TEER value of >400 Ω/cm^2 were used for transport experiments. Moreover, the TEER value was measured before and after the transport experiment to ascertain that the Caco-2 cell layer remained intact during the whole transport experiment.
(§3) Transport experiments were performed after 20 days of differentiation of the Caco-2 cells. The culture medium was replaced with HBSS (containing 1% (v/v) HEPES) 30 min prior to testing in both the apical and basolateral compartments. After the 30 min preincubation, 100 μL of HBSS containing a mixture of the 10 different AGEs including CML, CEL, GALA, argpyrimidine, MG-H1, GOLD, GOLA, MOLD, pentosidine, and pyrraline, each at 100 μmol/L, was added to the apical compartment after removing the preincubation medium, while the basolateral medium was replaced by 600 μL of HBSS. […] At 120 min, a 10 μL sample from the apical side was taken for calculating apical side retention (nontransported percentage).
(§4) The apparent permeability coefficient (Papp) value was calculated according to the methodology described by Yee.
(§5) AGEs were quantified by LC-MS using a Shimadzu Nexera XR LC-40D XR UPLC system (Kyoto, Japan) equipped with a UPLC Amide column (100 mm × 2.1 mm, 1.7 μm) without derivatization coupled with a Shimadzu LCMS-8045 triple quadrupole mass spectrometer (Kyoto, Japan). The analytical column was maintained at 40 °C throughout the quantification process. A multistep binary gradient system of water containing 0.1% (v/v) formic acid (solvent A) and acetonitrile containing 0.1% (v/v) formic acid (solvent B) was used. In the whole gradient program, the total proportion of solvents A and B is always equal to 100%. The gradient program was designed as follows: 75% solvent B to 12.5% solvent B from 0 to 10 min, followed by 12.5% solvent B from 10 to 11 min. […] The initial flow rate was set to 0.30 mL/min. Subsequently, it was reduced to 0.25 mL/min at 0.3 min, which was kept until 10 min. Afterward, there was a gradual decrease, reaching 0.15 mL/min at 11 min, and this rate was maintained until 12 min. […] Between 1 and 11 min of gradient running, the line was set to MS, and for the other time periods, the line was set to waste. The retention time and mass spectrometry parameters of individual AGEs are listed in Table S1 and the chromatograms of the samples are shown in Figure S1.

Caco-2 cell layer = assay: as above; assay type: in vitro ADME, Human
Description: as §1, §2, §3, §4, §5

PepT1 = assay: as above; assay type: in vitro ADME, Human; conditions: human, mixture, each AGE 100 μmol/L
Description: as §1, §2, §3, §4, §5

Caco-2 cell monolayer [3] = assay: Accumulation of AGEs in the Caco-2 cell monolayer after transport experiment; assay type: in vitro ADME, Human; conditions: mixture, each AGE 100 μmol/L, 2 h
Description: After the transport experiment, the cell monolayer on the inset membrane was washed three times with HBSS and three times with PBS. […] The samples were subsequently centrifuged at 16 000g for 20 min at 4 °C, and the supernatant was collected for further analysis by LC-MS.
as §5, with “The” for “AGEs were quantified by LC-MS using a Shimadzu Nexera XR LC-40D XR UPLC system (Kyoto, Japan) equipped with a UPLC Amide column (100 mm × 2.1 mm, 1.7 μm) without derivatization coupled with a Shimadzu LCMS-8045 triple quadrupole mass spectrometer (Kyoto, Japan). The”, “100%.” for “100%. The gradient program was designed as follows: 75% solvent B to 12.5% solvent B from 0 to 10 min, followed by 12.5% solvent B from 10 to 11 min.”

Caco-2 cell monolayer [4] = system: Caco-2 cell monolayer; parameters: method as in our previous study; conditions: CML in single testing; ref our previous study; cited from earlier work
[5] = Caco-2, 4 °C, mixture, each AGE 100 μmol/L
[6] = 4 °C, mixture, each AGE 100 μmol/L, 2 h
[7] = Gly-Sar 10 mmol/L, mixture, each AGE 100 μmol/L, 2 h
[8] = cytochalasin D pretreatment, mixture, each AGE 100 μmol/L, 2 h
[9] = standard treatment, mixture, each AGE 100 μmol/L, 2 h

## N[C@@H](CCCCNCC(=O)O)C(=O)O [CML, N-ε-(carboxymethyl)-lysine]
[1]
  effect on cell viability: did not affect cell viability up to the highest concentration tested
[2]; [5]
  recovery at 2 h, 100 μmol/L: 90 ± 5.3%
  Papp at 120 min, 100 μmol/L: 0.105 ×10⁻⁶ cm/s
[2]; Caco-2, cytochalasin D pretreatment, mixture, each AGE 100 μmol/L
  recovery at 2 h, 100 μmol/L: 96.9 ± 5.8%
[2]; Caco-2, standard treatment (37 °C), equimolar mixture of 10 AGEs, each 100 μmol/L apical
  Papp at 120 min, 100 μmol/L: 0.219 ×10⁻⁶ cm/s
[2]; Caco-2, standard treatment, mixture, each AGE 100 μmol/L
  recovery at 2 h, 100 μmol/L: 93.1 ± 6.1%
[2]; Caco-2, cytochalasin D 1 μg/mL, 30 min apical preincubation, mixture, each AGE 100 μmol/L
  Papp at 120 min, 100 μmol/L: 0.561 ×10⁻⁶ cm/s
Caco-2 cell layer; 4 °C versus 37 °C
  effect of 4 °C on transport compared to 37 °C: significantly reduced
Caco-2 cell layer; [6]
  percentage of the amount added at the apical side at t = 0: apical side: 89.4 ± 5.3 ^a %
  percentage of the amount added at the apical side at t = 0: basolateral side: 0.3 ± 0.1 ^b %
Caco-2 cell layer; [7]
  percentage of the amount added at the apical side at t = 0: apical side: 86.2 ± 3.6 ^a %
  percentage of the amount added at the apical side at t = 0: basolateral side: 0.5 ± 0.1 ^b %
Caco-2 cell layer; [8]
  percentage of the amount added at the apical side at t = 0: apical side: 91.8 ± 5.7 ^a %
  percentage of the amount added at the apical side at t = 0: basolateral side: 1.3 ± 0.6 ^a %
Caco-2 cell layer; mixture versus compound in isolation (our previous study)
  Papp value in the mixture as percentage of the Papp value tested in isolation in previous study: 57%
Caco-2 cell layer; [9]
  percentage of the amount added at the apical side at t = 0: apical side (nontransported): 89.0 ± 6.1 ^a %
  percentage of the amount added at the apical side at t = 0: basolateral side (transported): 0.5 ± 0.3 ^b %
PepT1; Caco-2, with Gly-Sar 10 mmol/L (apical compartment), Gly-Sar 10 mmol/L, 2 h, read-out: percentage of the amount added at the apical side at t = 0: recovery
  recovery at 2 h, 100 μmol/L: 92.7 ± 3.1%
PepT1; Caco-2, with Gly-Sar 10 mmol/L (apical), 10 mmol/L Gly-Sar apical (PepT1 inhibition), data from 120 min
  Papp at 120 min, 100 μmol/L: 0.207 ×10⁻⁶ cm/s
Caco-2 cell monolayer [3]; 4 °C
  percentage of the amount added at the apical side at t = 0: accumulation: 0.3 ± 0.3 ^c %
Caco-2 cell monolayer [3]; Gly-Sar 10 mmol/L
  percentage of the amount added at the apical side at t = 0: accumulation: 6.0 ± 2.1 ^a %
Caco-2 cell monolayer [3]; cytochalasin D pretreatment
  percentage of the amount added at the apical side at t = 0: accumulation: 3.8 ± 0.9 ^b %
Caco-2 cell monolayer [3]; standard treatment
  percentage of the amount added at the apical side at t = 0: accumulation (intracellular): 3.5% and 3.5 ± 0.6 ^b %
Caco-2 cell monolayer [4]
  intracellular accumulation: 4.5%
